Experimental findings from ChEMBL document CHEMBL1275557, “First countrywide survey of acquired metallo-beta-lactamases in gram-negative pathogens in Italy” (2008) are described below.

In brackets after ≈: the same amount, converted by molar mass.

Common to all, as to type: functional
The subject of test [1] is Pseudomonas putida. Briefly: Antibacterial activity against VIM-1 producing Pseudomonas putida isolate RM-11X-11 by Etest method.
For test [2], the system named is Pseudomonas aeruginosa. Nature of the test: Antibacterial activity against metallo-beta-lactamase positive Pseudomonas aeruginosa assessed as percent susceptible isolates by Etest method.
For test [3], the system named is Enterobacter cloacae. Nature of the test: Antibacterial activity against VIM-1 producing Enterobacter cloacae isolate TO-16X-51 by Etest method.
The test system of test [4] is Pseudomonas aeruginosa. Nature of the test: Antibacterial activity against VIM-1 producing Pseudomonas aeruginosa clone A1 isolate FG-17X-14 by Etest method.
In test [5] the test system is Pseudomonas aeruginosa. Briefly: Antibacterial activity against VIM-1 producing Pseudomonas aeruginosa clone A2 isolate NA-14X-21 by Etest method.
The subject of test [6] is Pseudomonas aeruginosa. Nature of the test: Antibacterial activity against VIM-1 producing Pseudomonas aeruginosa clone A2 isolate NA-14X-26 by Etest method.
Test [7] concerns Pseudomonas aeruginosa. Briefly: Antibacterial activity against VIM-1 producing Pseudomonas aeruginosa clone A2 isolate NA-14X-32 by Etest method.
Test [8] concerns Pseudomonas aeruginosa. Nature of the test: Antibacterial activity against VIM-1 producing Pseudomonas aeruginosa clone A3 isolate NA-14X-34 by Etest method.
Test [9] relates to Pseudomonas aeruginosa. Briefly: Antibacterial activity against VIM-1 producing Pseudomonas aeruginosa clone A3 isolate FG-17X-08 by Etest method.
Test [10] concerns Pseudomonas aeruginosa. Briefly: Antibacterial activity against VIM-1 producing Pseudomonas aeruginosa clone D isolate VA-06X-69 by Etest method.
In test [11] the test system is Pseudomonas aeruginosa. Nature of the test: Antibacterial activity against VIM-1 producing Pseudomonas aeruginosa clone D1 isolate VA-06X-63 by Etest method.
The subject of test [12] is Pseudomonas aeruginosa. Nature of the test: Antibacterial activity against VIM-1 producing Pseudomonas aeruginosa clone D2 isolate VA-06X-16 by Etest method.
Test [13] relates to Pseudomonas aeruginosa. Briefly: Antibacterial activity against VIM-1 producing Pseudomonas aeruginosa clone D2 isolate VA-06X-17 by Etest method.
Test [14] has as its system Pseudomonas aeruginosa. Nature of the test: Antibacterial activity against VIM-1 producing Pseudomonas aeruginosa clone D3 isolate VA-06X-65 by Etest method.
For test [15], the system named is Pseudomonas aeruginosa. Briefly: Antibacterial activity against VIM-1 producing Pseudomonas aeruginosa clone D4 isolate VA-06X-47 by Etest method.
Test [16] deals with Pseudomonas aeruginosa. Nature of the test: Antibacterial activity against VIM-1 producing Pseudomonas aeruginosa clone E isolate VA-06X-29 by Etest method.
The test system of test [17] is Pseudomonas aeruginosa. Briefly: Antibacterial activity against VIM-1 producing Pseudomonas aeruginosa clone F isolate RM-11X-09 by Etest method.
Test [18] concerns Pseudomonas aeruginosa. Briefly: Antibacterial activity against VIM-1 producing Pseudomonas aeruginosa clone G isolate NA-14X-13 by Etest method.
The test system of test [19] is Pseudomonas aeruginosa. Nature of the test: Antibacterial activity against VIM-2 producing Pseudomonas aeruginosa clone B1 isolate SS-09X-45 by Etest method.
For test [20], the system named is Pseudomonas aeruginosa. Nature of the test: Antibacterial activity against VIM-2 producing Pseudomonas aeruginosa clone B2 isolate VA-06X-20 by Etest method.
The subject of test [21] is Pseudomonas aeruginosa. Briefly: Antibacterial activity against VIM-2 producing Pseudomonas aeruginosa clone B2 isolate VA-06X-28 by Etest method.
Test [22] deals with Pseudomonas aeruginosa. Nature of the test: Antibacterial activity against VIM-2 producing Pseudomonas aeruginosa clone B2 isolate VA-06X-38 by Etest method.
The test system of test [23] is Pseudomonas aeruginosa. Briefly: Antibacterial activity against VIM-2 producing Pseudomonas aeruginosa clone B3 isolate CR-04X-14 by Etest method.
In test [24] the test system is Pseudomonas aeruginosa. Briefly: Antibacterial activity against VIM-2 producing Pseudomonas aeruginosa clone B3 isolate PV-05X-02 by Etest method.
In test [25] the test system is Pseudomonas aeruginosa. Briefly: Antibacterial activity against VIM-2 producing Pseudomonas aeruginosa clone B3 isolate PV-05X-07 by Etest method.
For test [26], the system named is Pseudomonas aeruginosa. Nature of the test: Antibacterial activity against IMP-13 producing Pseudomonas aeruginosa clone C1 isolate AV-13X-28 by Etest method.
In test [27] the test system is Pseudomonas aeruginosa. Briefly: Antibacterial activity against IMP-13 producing Pseudomonas aeruginosa clone C2 isolate NA-14X-02 by Etest method.
Test [28] concerns Pseudomonas aeruginosa. Briefly: Antibacterial activity against IMP-13 producing Pseudomonas aeruginosa clone C2 isolate NA-14X-10 by Etest method.
The subject of test [29] is Pseudomonas aeruginosa. Briefly: Antibacterial activity against IMP-13 producing Pseudomonas aeruginosa clone C2 isolate NA-14X-11 by Etest method.
The test system of test [30] is Pseudomonas aeruginosa. Briefly: Antibacterial activity against IMP-13 producing Pseudomonas aeruginosa clone C2 isolate NA-14X-12 by Etest method.
Test [31] concerns Pseudomonas aeruginosa. Nature of the test: Antibacterial activity against IMP-13 producing Pseudomonas aeruginosa clone C3 isolate PG-12X-03 by Etest method.

Turning to `C[C@H]1[C@H](NC(=O)/C(=N\OC(C)(C)C(=O)O)c2csc(N)n2)C(=O)N1S(=O)(=O)O` [AZTREONAM], the lowest concentration to inhibit growth in test [1] (MIC) was 8 µg/mL (≈ 18.4 µM). Also, in test [2], the Activity came to 75%.

Regarding `C[C@H]1COc2c(N3CCN(C)CC3)c(F)cc3c(=O)c(C(=O)O)cn1c23.C[C@H]1COc2c(N3CCN(C)CC3)c(F)cc3c(=O)c(C(=O)O)cn1c23.O` [LEVOFLOXACIN], the MIC (in general, the smallest concentration in the dilution series that meets the test's criterion for growth inhibition) was more than 32 µg/mL in [3]; 0.25 µg/mL in test [1]; more than 32 µg/mL in [4]; more than 32 µg/mL in test [5]; more than 32 µg/mL in [6]; more than 32 µg/mL in test [7]. For the same molecule, the MIC in test [8], in [9], in [10], in test [11], in test [12] and in test [13] was more than 32 µg/mL in each case. Besides, the MIC in test [14], in test [15], in test [16], in [17], in [18] and in test [19] was more than 32 µg/mL throughout. For the same molecule, the MIC in [20], in [21], in test [22], in test [23], in test [24] and in test [25] was more than 32 µg/mL in each case. The MIC in test [26], in test [27], in [28], in test [29], in test [30] and in test [31] was more than 32 µg/mL throughout.

`C[C@@H](O)[C@H]1C(=O)N2C(C(=O)O)=C(S[C@@H]3CN[C@H](C(=O)N(C)C)C3)[C@H](C)[C@H]12` [MEROPENEM]: the MIC in test [3] was 2 µg/mL (≈ 5.22 µM); in test [1] it was more than 32 µg/mL; in test [4], more than 32 µg/mL; in [5], more than 32 µg/mL; in [6] it was more than 32 µg/mL; in test [7] it was more than 32 µg/mL. For the same molecule, the MIC in [8], in test [9], in test [10], in test [11], in [12] and in test [13] was more than 32 µg/mL each time. The MIC in [14], in test [15], in [16], in [17], in [18] and in test [19] was more than 32 µg/mL in each case. The minimum inhibitory concentration (MIC) is more than 32 µg/mL in test [20]; more than 32 µg/mL in test [21]; more than 32 µg/mL in test [22]; more than 32 µg/mL in test [23]; 8 µg/mL (≈ 20.9 µM) in [24]; 8 µg/mL (≈ 20.9 µM) in test [25]. For the same molecule, the MIC in test [26] was 8 µg/mL (≈ 20.9 µM); in [27], more than 32 µg/mL; in [28], more than 32 µg/mL; in test [29], more than 32 µg/mL; in [30] it was more than 32 µg/mL; in [31], more than 32 µg/mL.
